The values that follow come from patent US20240246984A1, “HETEROCYCLIC JAK INHIBITOR” (BEIJING INNOCARE PHARMA TECH CO., LTD., priority 2020, published 2024).

Assay [1] deals with human recombinant TYK2 protein (Homo sapiens, UniProt P29597). Kind of assay: TYK2 activity inhibition assay (HTRF kinase detection). The class given is biochemical. The settings on record: 11.25 μM ATP substrate solution. The protocol: The effect of the compounds of the present invention on the activity of TYK2 was assessed by using an in vitro kinase detection assay.
The enzymatic activity of TYK2 was assessed by detecting the substrate phosphorylation level in a kinase reaction with a homogeneous time-resolved fluorescence (HTRF) kinase detection kit (Cisbio, 62TK0PEC). A reaction buffer contained an enzyme buffer (1×), 5 mM MgCl2, 1 mM DTT and 0.01% Brij35 from the kit; a human recombinant TYK2 protein (Carna Biosciences, 08-147) was diluted to a kinase reaction solution of 0.25 ng/μL with the reaction buffer; a substrate reaction solution contained 11.25 μM ATP and a biotin-labeled tyrosine kinase substrate diluted to 0.5 μM with the reaction buffer; a detection buffer contained 0.1 ng/μL Eu^3+ labeled cage antibody (Cisbio, 61T66KLB) and 25 nM streptavidin-labeled XL665 (Cisbio, 610SAXLB) in the reaction buffer; the compound was dissolved to 10 μM in DMSO, followed by a serial 4-fold dilution with DMSO to a minimum concentration of 0.061 nM. Each concentration was further diluted 40-fold with the reaction buffer. To a 384-well assay plate (Corning, 3674) were added 4 μL of the compound solutions having a series of concentrations and 2 μL of kinase reaction solutions. After being mixed evenly, the mixtures were incubated at room temperature for 15 minutes, and then 4 μL of the substrate reaction solutions were added. The reaction mixtures were incubated at room temperature for 40 minutes. Then the reaction mixtures were added with 10 μL of detection solutions, mixed evenly, and allowed to stand at room temperature for 30 minutes. An Envision plate reader (Perkin Elmer) was then used to measure the progress of the reaction at wavelengths of 620 nm and 665 nm. The signal value (absorbance at 665 nm/absorbance at 620 nm) was positively correlated with the degree of substrate phosphorylation, therefore the kinase activity of TYK2 was detected. In this assay, the group without TYK2 kinase protein was the 100% inhibition group, and the group with TYK2 kinase protein but without the test compound was the 0% inhibition group. The compound inhibition curve was plotted using XLfit software and the IC50 of its inhibition was calculated.
(In general: In TR-FRET formats the signal depends on donor and acceptor labels being close together.)

Assay [2] concerns the target human recombinant JAK2 protein (Homo sapiens, UniProt O60674). Kind of assay: JAK2 activity inhibition assay (HTRF kinase detection). The class given is biochemical. The settings on record: 2.5 μM ATP substrate solution. How it is done:
The effect of the compounds of the present invention on the activity of JAK2 was assessed by using an in vitro kinase detection assay.
The enzymatic activity of JAK2 was assessed by detecting the substrate phosphorylation level in a kinase reaction with a homogeneous time-resolved fluorescence (HTRF) kinase detection kit (Cisbio, 62TK0PEC). A reaction buffer contained an enzyme buffer (1×), 5 mM MgCl2, 1 mM DTT and 0.01% Brij35 from the kit; a human recombinant JAK2 protein (Carna Biosciences, 08-045) was diluted to a kinase reaction solution of 0.15 ng/μL with the reaction buffer; a substrate reaction solution contained 2.5 μM ATP and a biotin-labeled tyrosine kinase substrate diluted to 0.25 μM with the reaction buffer; a detection buffer contained 0.1 ng/μL Eu^3+ labeled cage antibody (Cisbio, 61T66KLB) and 12.5 nM streptavidin-labeled XL665 (Cisbio, 610SAXLB) in the reaction buffer; the compound was dissolved to 10 μM in DMSO, followed by a serial 4-fold dilution with DMSO to a minimum concentration of 0.061 nM. Each concentration was further diluted 40-fold with the reaction buffer. To a 384-well assay plate (Corning, 3674) were added 4 μL of the compound solutions having a series of concentrations and 2 μL of JAK2 kinase reaction solutions. After being mixed evenly, the mixtures were incubated at room temperature for 15 minutes, and then 4 μL of the substrate reaction solutions were added. The reaction mixtures were incubated at room temperature for 30 minutes. Then the reaction mixtures were added with 10 μL of detection solutions, mixed evenly, and allowed to stand at room temperature for 30 minutes. An Envision plate reader (Perkin Elmer) was then used to measure the progress of the reaction at wavelengths of 620 nm and 665 nm. The signal value (absorbance at 665 nm/absorbance at 620 nm) was positively correlated with the degree of substrate phosphorylation, therefore the kinase activity of JAK2 was detected. In this assay, the group without JAK2 kinase protein was the 100% inhibition group, and the group with JAK2 kinase protein but without the test compound was the 0% inhibition group. The compound inhibition curve was plotted using XLfit software and the IC50 of its inhibition was calculated.

For assay [3], the system named is IL-12-induced IFN-γ secretion in NK92 cells. Kind of assay: Inhibition of IL-12-induced IFN-γ secretion in NK92 cells (ELISA). The class given is cell-based. The settings on record: Homo sapiens, IL-12 stimulation, 24 hours, read-out: IC50 (NK92IL12/IFN-γ). How it is done: The effect of the compounds of the present invention on IFN-γ secretion in IL-12-induced NK92 cells was evaluated by an enzyme-linked immunosorbent assay (ELISA).
The assay principle was generally described below: IL-12R was mainly expressed in activated T-cells, NK cells (NK92 was an NK cell line), DC cells, and B-cells. When binding to IL-12, it activated the JAK2/TYK2 signal transduction pathway within NK cells and activated T lymphocytes, thereby inducing secretion of IFN-γ.
The compound was dissolved to 2.5 mM in DMSO, followed by a serial 4-fold dilution with DMSO to a minimum concentration of 0.31 μM. Each concentration was further diluted 50-fold with an FBS-free MEMα medium (Thermofisher. 12561-056).
NK92 cells (Nanjing Cobioer, CBP60980) were cultured in a complete MEMα medium containing 12.5% FBS (Ausbian, VS500T), 12.5% horse serum (Thermofisher, 16050-122), 0.02 mM folic acid (Sigma, F8758), 0.2 mM inositol (Sigma, 17850), 0.55 mM β-mercaptoethanol (Thermofish, 21985-023), 200 U/mL IL-2 (R&D Systems, 202-1L), and 100 U/mL penicillin-streptomycin mixed liquor (ThermoFisher, 15140122). When covering 80-90% of the culture container surface, the cells were dispersed and plated on a 96-well plate (ThermoFisher, 167425) with 100,000 cells per well (80 μL of the complete MEMα medium without IL-2). The 96-well plate was then incubated overnight in a 37° C., 5% CO2 incubator.
After overnight incubation, 10 μL of the compound and 10 μL of 50 ng/ml IL-12 (R &D Systems, 219-1L) were added to each well and mixed gently, and the 96-well plate was incubated in the 37° C., 5% CO2 incubator for additional 24 hours. The plate was centrifuged at 800 rpm for 10 minutes at room temperature and 50 μL of the supernatant from each well was transferred to another 96-well plate (Sigma, CLS3695) coated with anti-IFN-γ antibody. The amount of IFN-γ secretion was detected following the instruction from the Human IFN-γ DuoSet ELISA assay kit (R & D Systems, DY285B). In this assay, the group in which IL-12 and the test compound were replaced with the MEMα medium was the non-stimulated control group (100% inhibition), and the group with IL-12 and 0.2% DMSO was the stimulated control group (0% inhibition). The compound inhibition curve was plotted using XLfit software and the IC50 of its inhibition was calculated.

For the compound `CS(=O)(=O)c1ccc(Nc2nc(-c3c(F)cccc3F)n3cc[nH]c(=O)c23)cc1` [Compound 11, 3-(2,6-difluorophenyl)-1-((4-(methylsulfonyl)phenyl)amino)imidazo[1,5-a]pyrazin-8(7H)-one], the IC50 was determined as 4 nM in assay [1], 1.4 nM in assay [2] and 242 nM in assay [3].
The corresponding values for `CS(=O)(=O)c1ccc(Nc2nc(-c3c(F)cccc3F)n3c2C(=O)NCC3)cc1` [Compound 12, 3-(2,6-difluorophenyl)-1-((4-(methylsulfonyl)phenyl)amino)-6,7-dihydroimidazo[1,5-a]pyrazin-8(5H)-one] are 0.9 nM, 5.5 nM and 110 nM.
As for `CC(C)(C(=O)N1CCC1)c1ccc(Nc2nc(-c3c(F)cccc3F)n3c2C(=O)NCC3)cc1` [Compound 13, 1-((4-(1-(azetidin-1-yl)-2-methyl-1-oxopropan-2-yl)phenyl)amino)-3-(2,6-difluorophenyl)-6,7-dihydroimidazo[1,5-a]pyrazin-8(5H)-one], the IC50 in assay [1] worked out at 0.3 nM; in assay [2], 2.2 nM; in assay [3], 1060 nM.
Turning to `O=C(Cc1ccc(Nc2nc(-c3c(F)cccc3F)n3cc[nH]c(=O)c23)cc1)N1CCOCC1` [Compound 14, 3-(2,6-difluorophenyl)-1-((4-(2-morpholino-2-oxoethyl)phenyl)amino)imidazo[1,5-a]pyrazin-8(7H)-one], the IC50 in assay [1] stood at 0.3 nM; in assay [2], 0.5 nM; in assay [3], 113 nM.
In the case of `O=C1NCCn2c(-c3c(F)cccc3F)nc(Nc3ccc(CC(=O)N4CCOCC4)cc3)c21` [Compound 16, 3-(2,6-difluorophenyl)-1-((4-(2-morpholino-2-oxoethyl)phenyl)amino)-6,7-dihydroimidazo[1,5-a]pyrazin-8(5H)-one], the IC50 was found to be 2 nM in assay [1], 4.9 nM in assay [2] and 1440 nM in assay [3].
The corresponding values for `CC(C)(C(=O)N1CCOCC1)c1ccc(Nc2nc(-c3c(F)cccc3F)n3cc[nH]c(=O)c23)cc1` [Compound 17, 3-(2,6-difluorophenyl)-1-((4-(2-methyl-1-morpholino-1-oxopropan-2-yl)phenyl)amino)imidazo[1,5-a]pyrazin-8(7H)-one] are 0.1 nM, 0.3 nM and 520 nM.
For `CC(C)(C(=O)N1CCOCC1)c1ccc(Nc2nc(-c3c(F)cccc3F)n3c2C(=O)NCC3)cc1` [Compound 18, 3-(2,6-difluorophenyl)-1-((4-(2-methyl-1-morpholino-1-oxopropan-2-yl)phenyl)amino)-6,7-dihydroimidazo[1,5-a]pyrazin-8(5H)-one], the values for the IC50 in assay [1], in assay [2] and in assay [3] were 0.3 nM, 2.2 nM and 1410 nM, respectively.
As to `Cn1cc(Nc2nc(-c3c(F)cccc3Cl)n3cc[nH]c(=O)c23)cn1` [Compound 26, 3-(2-chloro-6-fluorophenyl)-1-((1-methyl-1H-pyrazol-4-yl)amino)imidazo[1,5-a]pyrazin-8(7H)-one], the IC50 is 0.7 nM in assay [1], 2.9 nM in assay [2] and 149 nM in assay [3].
For the compound `NC(=O)c1ccc(Nc2nc(-c3c(F)cccc3F)n3cc[nH]c(=O)c23)cc1` [Compound 27, 4-((3-(2,6-difluorophenyl)-8-oxo-7,8-dihydroimidazo[1,5-a]pyrazin-1-yl)amino)benzamide], the IC50 in assay [1] stood at 0.2 nM; in assay [2], 1.4 nM; in assay [3] it was 60 nM.
The corresponding values for `CN1CCN(C(=O)c2ccc(Nc3nc(-c4c(F)cccc4Cl)n4cc[nH]c(=O)c34)cc2)CC1` [Compound 31, 3-(2-chloro-6-fluorophenyl)-1-((4-(4-methylpiperazine-1-carbonyl)phenyl)amino)imidazo[1,5-a]pyrazin-8(7H)-one] are 0.1 nM, 0.6 nM and 56 nM.
Turning to `O=C(c1ccc(Nc2nc(-c3c(F)cccc3Cl)n3cc[nH]c(=O)c23)cc1)N1CCNCC1` [Compound 32, 3-(2-chloro-6-fluorophenyl)-1-((4-(piperazine-1-carbonyl)phenyl)amino)imidazo[1,5-a]pyrazin-8(7H)-one], the IC50 in assay [1] was 0.1 nM; in assay [2], 0.6 nM; in assay [3] it was 425 nM.
For the compound `CC(C)(C(N)=O)c1ccc(Nc2nc(-c3c(F)cccc3Cl)n3cc[nH]c(=O)c23)cc1` [Compound 33, 2-(4-((3-(2-chloro-6-fluorophenyl)-8-oxo-7,8-dihydroimidazo[1,5-a]pyrazin-1-yl)amino)phenyl)-2-methylpropanamide], the IC50 in assay [1] was determined as 0.1 nM; in assay [2], 0.4 nM; in assay [3] it was 66 nM.
The corresponding values for `CN1CCN(C(=O)C(C)(C)c2ccc(Nc3nc(-c4c(F)cccc4F)n4cc[nH]c(=O)c34)cc2)CC1` [Compound 35, 3-(2,6-difluorophenyl)-1-((4-(2-methyl-1-(4-methylpiperazin-1-yl)-1-oxopropan-2-yl)phenyl)amino)imidazo[1,5-a]pyrazin-8(7H)-one] are 0.4 nM, 0.6 nM and 191 nM.
